This note sets out measurements from article PMC6378217, “The lysyl oxidase like 2/3 enzymatic inhibitor, PXS‐5153A, reduces crosslinks and ameliorates fibrosis” (Journal of Cellular and Molecular Medicine, 2018).

The target of one assay is Adrenergic α1A (Rattus norvegicus, UniProt P43140). Put plainly: Eurofins Hit Profiling Screen. The format is binding. Particulars: 10 μmol/L.
For another assay, the system named is Nicotinic Acetylcholine. Briefly: Eurofins Hit Profiling Screen. In kind it is binding. Particulars: 10 μmol/L.
The target of the next assay is Histamine H1 (Homo sapiens, UniProt P35367). Put plainly: Eurofins Hit Profiling Screen. In kind it is binding. The following applies: 10 μmol/L.
Another assay addresses T1, Recombinant human LOXL4 (Homo sapiens, UniProt Q96JB6).
T1 construct: obtained from Dr. Fernando Rodríguez Pascual, university of Madrid, Spain (academic provider, not a vendor)
Put plainly: Amplex-Red fluorometric enzymatic activity assay, recombinant human LOXL4. The following applies: 30 minute pre-incubation; average of at least three experiments. The format is biochemical. How it is done:
(§1) The measurement of the enzymatic activity of all lysyl oxidase family members was based on the detection of hydrogen peroxide with an Amplex‐Red oxidation assay, as described in Zhou et al26 Recombinant human semicarbazide sensitive amine oxidase (SSAO/VAP1), diamine oxidase (DAO) and monoamine oxidases A and B (MAO‐A and MAO‐B) assays were performed as previously described.27 For detailed enzymatic procedures, see supporting information.
(§2) The measurement of the enzymatic activity of all lysyl oxidase family members was based on the detection of hydrogen peroxide with an Amplex-Red oxidation assay, as described in Zhou et al.[1]; miniaturised in 384 well format, with the appropriate combination of substrate and assay buffer for each individual enzyme. After a 30 minute pre-incubation of the enzyme at 37 °C with the test compound (or with different incubation times for the time-dependency assay), one volume of reaction mixture containing 120 μM Amplex Red (AR) (Life Technologies), 1.5 U/mL horseradish peroxidase (HRP) (Sigma-Aldrich) and the specific substrate was added to each sample. The relative fluorescence units (RFU) were then measured every 2.5 minutes for 30 minutes at 37°C, excitation 565 nm and emission 590, on a BMG Clariostar Microplate Reader. […]

Another assay addresses Cannabinoid CB1 (Homo sapiens, UniProt P21554). Briefly: Eurofins Hit Profiling Screen. The format is binding. The following applies: 10 μmol/L.
For assay [1], the system named is GABAA, Flunitrazepam, Central. Briefly: Eurofins Hit Profiling Screen. The format is binding. Particulars: 10 μmol/L.
For another assay, the target named is T2, LOXL2 (Homo sapiens, UniProt Q9Y4K0).
T2 sequence (Q9Y4K0 26-774): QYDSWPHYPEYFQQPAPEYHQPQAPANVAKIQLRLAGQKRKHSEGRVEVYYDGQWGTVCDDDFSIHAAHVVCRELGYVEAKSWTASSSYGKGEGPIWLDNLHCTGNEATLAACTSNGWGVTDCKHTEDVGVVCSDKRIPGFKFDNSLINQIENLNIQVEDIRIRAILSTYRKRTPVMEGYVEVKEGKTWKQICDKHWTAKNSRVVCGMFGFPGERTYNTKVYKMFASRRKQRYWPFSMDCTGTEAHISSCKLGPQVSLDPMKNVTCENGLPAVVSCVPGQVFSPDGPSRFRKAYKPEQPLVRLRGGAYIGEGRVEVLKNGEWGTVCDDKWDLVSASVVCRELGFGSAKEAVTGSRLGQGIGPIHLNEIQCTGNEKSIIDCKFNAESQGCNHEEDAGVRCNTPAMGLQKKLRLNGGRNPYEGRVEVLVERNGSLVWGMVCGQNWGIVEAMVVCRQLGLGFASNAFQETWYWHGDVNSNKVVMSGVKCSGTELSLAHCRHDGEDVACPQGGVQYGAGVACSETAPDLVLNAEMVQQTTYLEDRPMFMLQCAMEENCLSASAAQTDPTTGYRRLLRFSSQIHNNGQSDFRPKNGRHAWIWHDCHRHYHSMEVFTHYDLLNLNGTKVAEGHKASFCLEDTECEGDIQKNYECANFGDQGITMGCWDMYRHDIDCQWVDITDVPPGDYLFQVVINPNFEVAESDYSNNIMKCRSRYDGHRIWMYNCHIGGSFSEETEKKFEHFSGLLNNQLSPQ
Briefly: In vitro crosslinking assay. In kind it is biochemical. More on the design: purchased R&D Systems. Particulars: 200 nmol/L PXS-5153A, 20 nmol/L rhLOXL2 daily for 5 days, crosslinks on day 7. How it is done:
About 200 μL of 3 mg/mL collagen (rat tail, type I, Thermo Fisher) was combined with 800 μL of 50 mmol/L sodium borate buffer (pH 8.2) and 20 nmol/L of rhLOXL2 (with or without inhibitor, PXS‐5153A 200 nmol/L). Enzyme/inhibitor were replenished daily for 5 days. Samples were incubated at 37°C and crosslinks were extracted on day 7.
About 10mg of freeze‐dried samples were reduced with NaBH4. Pellet then underwent acid hydrolysis in 6 mol/L HCl at 100°C for 24 hours. Hydroxyproline and crosslinks were extracted from the hydrolysate using an automated solid phase extraction system (Gilson GX‐271 ASPECA system). After extraction and drying, hydroxyproline and crosslinks were analysed by UHPLC‐ESI‐MS/MS on a Thermo Dionex UHPLC and TSQ Endura triple quad mass spectrometer. Total protein was quantified in the samples using a commercially available kit (QuickZyme Biosciences, Leiden, The Netherlands). For detailed procedures, see supporting information.

Another assay has as its target T3, Native human LOX (Homo sapiens, UniProt P28300).
T3 construct: collecting the 30-kDa LOX in the lower molecular weight portion; host or cells: IMR90 conditioned medium
Put plainly: Amplex-Red fluorometric enzymatic activity assay, native human LOX (IMR90 conditioned medium). The format is biochemical. Particulars: 30 minute pre-incubation; average of at least three experiments. How it is done:
as §1, §2

T3 sequence (P28300 169-417): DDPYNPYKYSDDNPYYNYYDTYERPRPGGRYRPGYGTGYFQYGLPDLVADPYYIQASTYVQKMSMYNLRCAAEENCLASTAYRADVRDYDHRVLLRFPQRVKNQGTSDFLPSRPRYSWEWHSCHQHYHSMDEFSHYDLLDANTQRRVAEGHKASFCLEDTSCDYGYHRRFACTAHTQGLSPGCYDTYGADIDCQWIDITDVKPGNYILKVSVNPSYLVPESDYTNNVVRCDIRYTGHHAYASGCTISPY
T1 sequence (Q96JB6 25-756): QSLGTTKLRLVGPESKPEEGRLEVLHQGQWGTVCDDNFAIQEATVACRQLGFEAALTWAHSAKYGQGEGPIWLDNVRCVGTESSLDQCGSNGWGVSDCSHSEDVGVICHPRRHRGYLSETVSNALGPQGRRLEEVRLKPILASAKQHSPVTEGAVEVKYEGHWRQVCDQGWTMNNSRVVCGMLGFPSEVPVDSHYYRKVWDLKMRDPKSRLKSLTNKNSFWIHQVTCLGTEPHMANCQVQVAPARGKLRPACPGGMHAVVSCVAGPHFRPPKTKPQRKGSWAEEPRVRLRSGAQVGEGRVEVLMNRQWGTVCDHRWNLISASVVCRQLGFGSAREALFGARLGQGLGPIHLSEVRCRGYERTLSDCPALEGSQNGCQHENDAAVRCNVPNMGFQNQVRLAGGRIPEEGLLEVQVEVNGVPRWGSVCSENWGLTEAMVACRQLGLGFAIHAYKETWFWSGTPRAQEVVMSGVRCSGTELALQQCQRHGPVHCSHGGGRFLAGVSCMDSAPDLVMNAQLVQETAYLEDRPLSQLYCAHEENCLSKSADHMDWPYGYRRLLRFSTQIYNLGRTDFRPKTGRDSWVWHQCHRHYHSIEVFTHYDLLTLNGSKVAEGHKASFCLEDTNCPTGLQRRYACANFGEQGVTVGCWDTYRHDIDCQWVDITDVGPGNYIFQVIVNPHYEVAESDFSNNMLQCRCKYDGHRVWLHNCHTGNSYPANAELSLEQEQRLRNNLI
Sequence of Histamine H1 (P35367 whole entry): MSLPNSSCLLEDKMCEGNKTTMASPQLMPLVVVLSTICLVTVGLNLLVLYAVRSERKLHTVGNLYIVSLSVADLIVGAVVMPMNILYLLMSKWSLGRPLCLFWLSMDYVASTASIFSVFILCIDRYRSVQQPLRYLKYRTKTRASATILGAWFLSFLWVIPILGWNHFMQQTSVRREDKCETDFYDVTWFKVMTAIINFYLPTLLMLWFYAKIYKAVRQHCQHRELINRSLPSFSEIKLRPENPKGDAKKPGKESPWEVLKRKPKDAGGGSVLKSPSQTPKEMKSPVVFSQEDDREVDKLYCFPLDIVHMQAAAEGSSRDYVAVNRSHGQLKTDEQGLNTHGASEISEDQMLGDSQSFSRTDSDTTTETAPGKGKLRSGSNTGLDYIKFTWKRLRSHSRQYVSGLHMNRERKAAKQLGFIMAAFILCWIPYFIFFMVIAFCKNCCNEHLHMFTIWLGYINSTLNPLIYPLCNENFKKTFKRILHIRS
Sequence of Cannabinoid CB1 (P21554 whole entry): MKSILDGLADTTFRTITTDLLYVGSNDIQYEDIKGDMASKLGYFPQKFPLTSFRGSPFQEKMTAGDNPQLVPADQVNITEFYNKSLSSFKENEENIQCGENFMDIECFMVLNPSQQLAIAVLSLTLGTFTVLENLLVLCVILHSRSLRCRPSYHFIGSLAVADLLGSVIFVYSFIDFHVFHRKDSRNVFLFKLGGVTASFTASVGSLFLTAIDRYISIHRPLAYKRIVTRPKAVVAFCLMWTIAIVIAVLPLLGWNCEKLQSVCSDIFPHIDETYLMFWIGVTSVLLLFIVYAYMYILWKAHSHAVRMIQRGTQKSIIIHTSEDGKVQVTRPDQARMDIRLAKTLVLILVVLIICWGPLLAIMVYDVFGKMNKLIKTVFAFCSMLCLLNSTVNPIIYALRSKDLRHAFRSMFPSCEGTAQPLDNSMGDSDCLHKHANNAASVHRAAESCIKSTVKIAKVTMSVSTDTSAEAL
Sequence of Adrenergic α1A (P43140 whole entry): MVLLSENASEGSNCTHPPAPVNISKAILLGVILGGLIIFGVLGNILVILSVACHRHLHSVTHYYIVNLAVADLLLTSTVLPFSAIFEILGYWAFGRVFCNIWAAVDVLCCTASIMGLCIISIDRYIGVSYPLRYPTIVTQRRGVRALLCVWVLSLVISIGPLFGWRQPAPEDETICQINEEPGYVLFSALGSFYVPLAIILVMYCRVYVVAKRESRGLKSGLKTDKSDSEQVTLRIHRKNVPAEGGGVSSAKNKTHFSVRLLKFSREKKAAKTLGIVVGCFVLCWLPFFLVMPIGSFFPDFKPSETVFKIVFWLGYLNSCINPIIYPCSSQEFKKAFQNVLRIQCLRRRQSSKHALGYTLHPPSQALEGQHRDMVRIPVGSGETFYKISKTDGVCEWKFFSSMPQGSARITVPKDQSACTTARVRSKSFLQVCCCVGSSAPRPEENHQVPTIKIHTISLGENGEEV

One may read the % inhibition as the percentage by which the read-out fell short of the control. In general, IC50 refers to the concentration at which inhibition is half-maximal. In the case of `Cc1c(-c2cccc(S(=O)(=O)N(C)C)c2)c2ncccc2n1C/C(F)=C/CN.Cl.Cl` [PXS-5153A], the “% inhibition” value on Adrenergic α1A came out at 20%; with Nicotinic Acetylcholine, 16%; on Histamine H1, 23%; on Cannabinoid CB1, 17%; in assay [1] it was 26%. Further, the values for the IC50 on Recombinant human LOXL4 and at Native human LOX were 104 nM and 1790 nM, respectively. The figures for the “pIC50 ± SD” value at Recombinant human LOXL4 and on Native human LOX were 7 ± 0.1 and 5.7 ± 0.16, respectively. For the same compound, the “crosslink formation DHLNL, HLNL, PYD, DPD” value at LOXL2 is on record as “prevented all crosslink formation”.
